In patent US5958903A, “Galanthamine derivatives, and their pharmaceutical compositions” (priority 1995, dated 1999):

Molecular target: T1, acetylcholinesterase (Electrophorus electricus, UniProt O42275)
T1 construct: purchased SIGMA C 2888; host or cells: electric organ of Electrophorus electricus
Assay: cholinesterase inhibitory activity: acetylcholinesterase activity by the Ellman method
Type: biochemical
Settings: acetylthiocholine iodide substrate, DTNB, phosphate buffer pH 8, 25° C., absorbance at 412 nm; read-out: IC50 ± SD (inhibitory concentration at 50% activity of the enzyme)
Experimental: In order to measure the cholinesterase inhibitory activity of the compounds of the invention, the enzymatic activity of acetylcholinesterase is evaluated by the Ellman method (Biochemical Pharmacology, 1961, Vol. 7 pp 88-95, Ellman et al.).
The principle of the method comprises measuring the rate of thiocholine at the time of hydrolysis of the acetylcholine by the enzyme. The hydrolysis is accompanied by a continuous reaction between thiocholine and 5,5'-dithio-2-nitrobenzoic acid (DTNB) which leads to the formation of the yellow colored 5-thio-2-nitrobenzoate anion. The rate of the formation of the anion is measured by absorbance at 412 nm.
The material used is comprised of a 0.1 M (pH 8) phosphate buffer: Na2 HPO4 /NaH2 PO4, an enzyme: acetylcholinesterase from the electrical organ of the electric ray Electrophorus electricus (SIGMA C 2888) purified on Sephadex resin, a substrate: acetylthiocholine iodide 7.5 mM (21.67 mg/10 ml of phosphate buffer) and a reagant: 5,5'-dithio-2-nitrobenzoic acid (DTNB) 10 mM (39.6mg / 10 ml of phosphate buffer).
Thus 3 ml of phosphate buffer, 100 μl of DTNB, 2 μl enzyme, 3.3 μl of the compound according to the invention, and 200 μl of substrate are mixed at 25° C., subsequently the change of absorbance at 412 nm is measured immediately.

T1 sequence (O42275 24-633): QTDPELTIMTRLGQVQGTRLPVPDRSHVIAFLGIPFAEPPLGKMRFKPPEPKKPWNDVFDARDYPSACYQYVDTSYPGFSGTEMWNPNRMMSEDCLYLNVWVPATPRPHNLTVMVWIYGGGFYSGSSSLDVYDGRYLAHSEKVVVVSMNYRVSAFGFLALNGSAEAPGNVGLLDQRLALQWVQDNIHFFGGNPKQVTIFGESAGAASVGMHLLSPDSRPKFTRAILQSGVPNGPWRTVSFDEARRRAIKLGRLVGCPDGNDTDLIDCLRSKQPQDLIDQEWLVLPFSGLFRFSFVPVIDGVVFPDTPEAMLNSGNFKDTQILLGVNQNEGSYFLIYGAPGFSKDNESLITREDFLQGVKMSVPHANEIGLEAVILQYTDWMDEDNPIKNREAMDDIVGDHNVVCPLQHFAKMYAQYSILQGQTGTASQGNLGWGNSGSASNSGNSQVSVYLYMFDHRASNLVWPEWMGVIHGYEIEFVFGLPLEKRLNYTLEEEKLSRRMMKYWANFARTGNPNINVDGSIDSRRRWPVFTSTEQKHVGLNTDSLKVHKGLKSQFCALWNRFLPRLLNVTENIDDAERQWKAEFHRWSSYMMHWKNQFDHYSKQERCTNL

Compound | IC50 [nM]
COc1ccc2c3c1O[C@H]1C[C@@H](O)C=C[C@@]31CC[N+](CCCCCCn1cccc1)=C2 [Example 11, 10-N-demethyl-10-N-(6'pyrrolohexyl)-galanthaminium bromohydrate] | 170 ± 10
COc1ccc2c3c1O[C@H]1C[C@@H](O)C=C[C@@]31CC[N+](C)=C2 [Example 1, galanthaminium methanesulfonate] | 80 ± 2
